How the values were obtained:
human CYP11B1 = target: T1, human CYP11B1 (Homo sapiens, UniProt P15538); test: G-402 cellular enzyme assay, human CYP11B1 (cortisol release, HTRF); format: cell-based; settings: G-402 cells, 1 μM Deoxycortisol
T1 construct: The expression plasmids contains the ORF for either human/cyno CYP11B1 or CYP11B2; expressed in transfected cells
T1 sequence (P15538 25-503): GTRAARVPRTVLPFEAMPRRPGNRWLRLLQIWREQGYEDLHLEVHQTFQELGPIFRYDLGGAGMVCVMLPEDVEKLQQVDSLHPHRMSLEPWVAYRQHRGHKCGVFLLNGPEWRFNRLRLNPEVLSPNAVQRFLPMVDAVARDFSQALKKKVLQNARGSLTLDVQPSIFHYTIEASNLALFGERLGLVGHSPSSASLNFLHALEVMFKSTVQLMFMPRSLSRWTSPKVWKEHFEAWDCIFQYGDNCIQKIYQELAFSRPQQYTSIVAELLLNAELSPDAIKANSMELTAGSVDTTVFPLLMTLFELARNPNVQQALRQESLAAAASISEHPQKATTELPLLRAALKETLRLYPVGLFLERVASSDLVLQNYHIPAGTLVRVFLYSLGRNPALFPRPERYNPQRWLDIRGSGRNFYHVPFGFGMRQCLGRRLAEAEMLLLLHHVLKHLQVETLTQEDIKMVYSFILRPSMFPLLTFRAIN
From the text: Herein we identified the use of the G-402 cell line as a host cell to ectopically express (transiently or stably) enzymes of the CYP11 family. Specifically we developed stable G-402 cells expressing ectopically human CYP11B1, human CYP11B2, human CYP11A1, cynmolgus CYP11B1 or cynomolgus CYP11B2 enzyme activity. Importantly the identified cell line G-402 expresses co-factors (adrenodoxin and adrenodoxin reductase) important for the activity of the CYP11 family and no relevant enzyme activity of the CYP11 family (in comparison to H295R cells) was detected in these cells. Therefore the G-402 cell line is uniquely suited as a host cell for the ectopic expression of enzymes from the CYP11 family.
G-402 cells can be obtained from ATCC (CRL-1440) and were originally derived from a renal leiomyoblastoma.
The expression plasmids contains the ORF for either human/cyno CYP11B1 or CYP11B2 under the control of a suitable promoter (CMV-promoter) and a suitable resistance marker (neomycin). […] Individual cell-clones are then selected and assessed for displaying the desired enzymatic activity using 11-Deoxycorticosterone (Cyp11B2) or 11-Deoxycortisol (Cyp11B1) as a substrate. […]
[formula] wherein, A is the maximum y value, B is the EC50 factor determined using XLFit, C is the minimum y value and D is the slope value. […]

[1] = test system: rat model of chronic kidney disease; settings: cited from earlier work; for plasma aldosterone: FAD286: 4 weeks of treatment, spironolactone: 4 and 8 weeks of treatment; for angiotensin II and salt-stimulated PAI-1 mRNA expression in the aorta and the heart / renal effects of angiotensin II and high salt (albuminuria, azotemia, renovascular hypertrophy, glomerular injury, PAI-1, osteopontin mRNA, tubulointerstitial fibrosis): rat, in vivo
[2] = test system: rats with experimental heart failure; settings: rat, in vivo; cited from earlier work
[3] = test system: patients with primary aldosteronism; settings: cited from earlier work

Row | Compound | plasma aldosterone [1] | angiotensin II and salt-stimulated PAI-1 mRNA expression in the aorta and the heart [1] | renal effects of angiotensin II and high salt (albuminuria, azotemia, renovascular hypertrophy, glomerular injury, PAI-1, osteopontin mRNA, tubulointerstitial fibrosis) [1] | also measured
1 | CN1C(=O)CCc2c1ccc(-c1n[nH]cc1COC1CN(C(=O)c3cnn(C)c3)C1)c2F [Example 66, 5-Fluoro-1-methyl-6-[4-[[1-(1-methylpyrazole-4-carbonyl)azetidin-3-yl]oxymethyl]-1H-pyrazol-3-yl]-3,4-dihydroquinolin-2-one] |  |  |  | EC50 (human CYP11B1): > 30 nM
2 | N#Cc1ccc(C2CCCc3cncn32)cc1 (centres unmarked) [FAD286] | reduced | not | prevented these renal effects | blood pressure and cardiovascular function and structure [2]: improved
3 | N#Cc1ccc([C@H]2CCc3cncn32)c(F)c1 [LCI699] |  |  |  | blood pressure ([3]; human, in vivo): mildly decreased; hypokalemia ([3]; human, in vivo): corrected; circulating aldosterone levels ([3]; orally active): significantly lower
4 | CC(=O)S[C@@H]1CC2=CC(=O)CC[C@]2(C)[C@H]2CC[C@@]3(C)[C@@H](CC[C@@]34CCC(=O)O4)[C@H]12 [spironolactone] | increased | enhanced | prevented these renal effects | 

Reference: patent US9790200B2, “Dihydroquinoline pyrazolyl compounds” (Hoffmann-La Roche Inc., priority 2015, dated 2017)
